From PMC5485171 (Diabetes, Obesity & Metabolism, 2017)

Tested on: patients with type 2 diabetes
Experiment: Adverse events
Type: in vivo, human
[1] = 28 weeks, as‐treated, number (%) of patients, n = 181 / 122
[2] = 28 weeks, most common AEs (≥5% of patients)

With `N[C@@H](CC(=O)N1CCn2c(nnc2C(F)(F)F)C1)Cc1cc(F)c(F)cc1F` [Sitagliptin, sitagliptin] the “symptoms of hypoglycaemia, number of recipients” value (28 weeks) was 7 recipients, the “AEs leading to withdrawal” value [1] was 0 (0.0) n (%) and the “Cardiovascular events (adjudicated)” value [1] was 0 (0.0) n (%). For the same molecule, the “Gastrointestinal AEs” value [1] was 9 (7.4) n (%), the “Gastrointestinal AEs: Diarrhea” value [1] was 2 (1.6) n (%) and the “Gastrointestinal AEs: Dyspepsia” value [1] was 1 (0.8) n (%). The “Gastrointestinal AEs: Nausea” value [1] was 2 (1.6) n (%), the “Gastrointestinal AEs: Vomiting” value [1] was 0 (0.0) n (%) and the “Hypoglycaemia: Major” value [1] was 0 (0.0) n (%). The “Injection‐site‐related AEs” value [1] was 0 (0.0) n (%), the “Injection‐site‐related AEs: Bruising” value [1] was 0 (0.0) n (%) and the “Injection‐site‐related AEs: Induration” value [1] was 0 (0.0) n (%). For the same molecule, the “Injection‐site‐related AEs: Nodules” value [1] was 0 (0.0) n (%), the “Injection‐site‐related AEs: Pruritus” value [1] was 0 (0.0) n (%) and the “Pancreatic cancer (adjudicated)” value [1] was 0 (0.0) n (%). For the same molecule, the “Pancreatitis (adjudicated)” value [1] was 0 (0.0) n (%), the Renal failure [1] was 0 (0.0) n (%) and the “Serious AEs” value [1] was 0 (0.0) n (%). The Symptoms of hypoglycaemia [1] was 7 (5.7) n (%), the “Thyroid neoplasms (adjudicated)” value [1] was 0 (0.0) n (%) and the “nasopharyngitis, proportion of patients” value [2] was 0.0%. For the same molecule, the “nausea, proportion of patients” value [2] was 1.6%, the “Hypoglycaemia: Minor” value (28 weeks, symptoms and glucose <54 mg/dL, number (%) of patients, n = 181 / 122) was 1 (0.8) n (%) and the “AEs reported, proportion of recipients” value (28‐week treatment period) was 32.8%. For the same molecule, the “Any AE” value (28‐week treatment period, as‐treated, exenatide 2.0 mg QW sc (n = 181), sitagliptin 100 mg once daily oral (n = 122), number (%) of patients) was 40 (32.8) n (%).
